Read-outs that look alike come from different tables or passages of the source.
Assays:
PKA = PKA (Homo sapiens, UniProt P17612); assay: Kinase screen: PKA assay; format: biochemical
Experimental: (§1) Generally, the same procedure was used for all assays. Since the total assay volume was 25.5 microliters, 0.5 microliters of inhibitors at 51× assay concentration were added to the plates before any other addition.
(§2) The basic procedure was to add 0.5 microliters inhibitor/control in DMSO to plate. Fifteen microliters of enzyme/substrate/buffer mix were added and incubated for 5 min. Ten microliters MgATP at the relevant concentration were added and incubated for 30 min. The assay was stopped by adding 5 microliters of 3% orthophosphoric acid. The assay was transferred to a p81 filter plate and read in a scintillation counter of 30 sec/well. Note that this assay procedure was not followed for MKK1, which instead involved a two-step assay, and PKC alpha, which required the addition of lipid vesicles.
PKA assay: PKA (5-20 mU diluted in 20 mM MOPS pH 7.5, 1 mM EDTA, 0.01% Brij35, 0.1% b-mercaptoethanol, 1 mg/ml BSA) was assayed against Kemptide (LRRASLG) (SEQ ID NO: 6) in a final volume of 25.5 μl containing 8 mM MOPS pH 7.5, 0.2 mM EDTA, 30 μM substrate peptide, 10 mM magnesium acetate and 0.005 mM [33P-g-ATP] (50-1000 cpm/pmole) and incubated for 30 min at room temperature. Assays were stopped by addition of 5 μl of 0.5 M (3%) orthophosphoric acid and then harvested onto P81 Unifilter plates with a wash buffer of 50 mM orthophosphoric acid.

PKCα = PKCα (Homo sapiens, UniProt P17252); assay: Kinase screen: PKCa assay; format: biochemical
Experimental: as §1, §2
PKCa assay: PKCa (5-20 mU diluted in 20 mM Hepes pH 7.4, 0.03% Triton X-100) was assayed against Histone H1 in the presence of PtdSerine and DAG (0.1 mg/ml. and 10 μg/ml) and 0.1 mM CaCl2. The assay was carried out in a final volume of 25.5 μl containing 20 mM Hepes pH 7.4, 0.03% Triton X-100, 0.1 mg/ml Histone H1, 10 mM magnesium acetate and 0.02 mM[33P-g-ATP] (50-1000 cpm/pmole) and incubated for 30 min at room temperature. Assays were stopped by addition of 5 μl of 0.5 M (3%) orthophosphoric acid and then harvested onto P81 Unifilter plates with a wash buffer of 50 mM orthophosphoric acid.
PtdSer/DAG preparation: PtdSer stock was 10 mg/ml in MeOH/Chloroform (1:2). The required amount was dried down and re-suspended in an appropriate volume of 10 mM Hepes pH 7.4, vortexed, and briefly sonicated (2×10^−15 seconds at 10-15 seconds apart). DAG stock was 10 mg/ml in MeOH/chloroform (1:2). The required amount was dried down and sonicated PtdSer solution was added, vortexed and sonicated.

YES1 = YES1 (Homo sapiens, UniProt P07947); assay: Kinase screen: YES1 assay; format: biochemical; conditions: 10 micromolar compound; for remaining activity at 10 µM: read-out: mean activity remaining (as a percentage of the original activity), YES1
Chain of YES1 (P07947 whole entry, species assumed): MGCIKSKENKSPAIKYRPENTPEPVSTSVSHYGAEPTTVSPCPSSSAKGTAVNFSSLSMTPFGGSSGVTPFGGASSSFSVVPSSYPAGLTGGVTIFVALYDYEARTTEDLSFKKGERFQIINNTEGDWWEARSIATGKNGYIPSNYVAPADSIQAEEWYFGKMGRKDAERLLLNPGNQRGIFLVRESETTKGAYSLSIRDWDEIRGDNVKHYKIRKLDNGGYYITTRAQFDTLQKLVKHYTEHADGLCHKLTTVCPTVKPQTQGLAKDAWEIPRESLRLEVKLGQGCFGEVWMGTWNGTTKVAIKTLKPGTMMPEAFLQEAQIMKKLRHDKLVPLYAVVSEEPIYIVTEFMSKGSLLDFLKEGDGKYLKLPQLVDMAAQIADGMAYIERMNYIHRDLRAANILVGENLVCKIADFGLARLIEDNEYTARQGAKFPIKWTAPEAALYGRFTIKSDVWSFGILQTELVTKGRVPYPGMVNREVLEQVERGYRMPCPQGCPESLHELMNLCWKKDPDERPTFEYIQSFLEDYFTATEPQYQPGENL
Experimental: as §1, §2
YES1 assay: YES1 (5-20 mU diluted in 50 mM Tris pH 7.5, 0.1 mM EGTA, 1 mg/ml BSA) was assayed against a substrate peptide (Poly Glut Tyr) in a final volume of 25.5 μl containing 50 mM Tris pH 7.5, 1 mg/ml substrate peptide, 10 mM magnesium acetate and 0.02 mM [33P-g-ATP] (50-1000 cpm/pmole) and incubated for 30 min at room temperature. Assays were stopped by addition of 5 μl of 0.5 M (3%) orthophosphoric acid and then harvested onto P81 Unifilter plates with a wash buffer of 50 mM orthophosphoric acid.

CK1 = CK1 (Homo sapiens, UniProt P48730); assay: Kinase screen: CK1 assay; format: biochemical
Chain of CK1 (P48730 whole entry): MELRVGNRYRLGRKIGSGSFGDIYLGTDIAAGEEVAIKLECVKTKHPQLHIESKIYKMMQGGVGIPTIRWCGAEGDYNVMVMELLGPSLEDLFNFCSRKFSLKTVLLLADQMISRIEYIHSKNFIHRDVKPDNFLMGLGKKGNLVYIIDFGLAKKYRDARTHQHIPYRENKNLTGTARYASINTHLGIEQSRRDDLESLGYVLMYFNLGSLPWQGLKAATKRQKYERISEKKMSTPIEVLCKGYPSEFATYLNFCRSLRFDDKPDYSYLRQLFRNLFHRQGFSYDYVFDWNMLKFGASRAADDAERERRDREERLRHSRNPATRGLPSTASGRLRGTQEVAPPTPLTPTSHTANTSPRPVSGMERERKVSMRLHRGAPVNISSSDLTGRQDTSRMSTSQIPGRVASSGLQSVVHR
Experimental: as §2, with “Generally, the same procedure was used for all assays. […] The basic” for “The basic”, “30 min. […] The assay” for “30 min. The assay was stopped by adding 5 microliters of 3% orthophosphoric acid. The assay”, “lipid vesicles. CK1 assay: […]” for “lipid vesicles.”

MARK3 = MARK3 (Homo sapiens, UniProt P27448); assay: Kinase screen: MARK3 assay; format: biochemical
Chain of MARK3 (P27448 whole entry, species assumed): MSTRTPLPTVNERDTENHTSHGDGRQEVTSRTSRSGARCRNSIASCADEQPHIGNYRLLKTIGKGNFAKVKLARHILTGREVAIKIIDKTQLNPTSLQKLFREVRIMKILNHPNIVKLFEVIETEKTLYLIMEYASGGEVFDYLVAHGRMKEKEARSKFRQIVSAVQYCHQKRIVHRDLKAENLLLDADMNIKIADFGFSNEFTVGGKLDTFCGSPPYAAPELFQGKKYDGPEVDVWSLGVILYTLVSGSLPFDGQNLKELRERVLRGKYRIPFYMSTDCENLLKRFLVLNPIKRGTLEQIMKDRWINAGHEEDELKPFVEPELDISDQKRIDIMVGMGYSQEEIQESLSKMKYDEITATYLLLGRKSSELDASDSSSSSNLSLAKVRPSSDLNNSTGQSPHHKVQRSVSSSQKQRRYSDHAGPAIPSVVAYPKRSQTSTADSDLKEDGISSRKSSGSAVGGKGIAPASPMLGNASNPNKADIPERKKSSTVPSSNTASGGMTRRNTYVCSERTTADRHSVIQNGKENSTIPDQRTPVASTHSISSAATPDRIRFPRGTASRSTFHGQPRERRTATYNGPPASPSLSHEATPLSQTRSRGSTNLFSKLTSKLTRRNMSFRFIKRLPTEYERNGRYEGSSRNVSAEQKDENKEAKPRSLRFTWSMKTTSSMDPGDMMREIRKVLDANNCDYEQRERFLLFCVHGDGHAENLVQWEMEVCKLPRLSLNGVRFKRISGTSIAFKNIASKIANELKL
Experimental: as §1, §2
MARK3 assay: MARK3 (5-20 mU diluted in 50 mM Tris pH 7.5, 0.1 mM EGTA, 0.1% b-mercaptoethanol, 1 mg/ml BSA) was assayed against CHKtide substrate ([…]) (SEQ ID NO: 12) in a final volume of 25.5 μl containing 50 mM Tris pH 7.5, 0.05% b-mercaptoethanol, 300 μM substrate peptide, 10 mM magnesium acetate and 0.005 mM [33P-g-ATP] (50-1000 cpm/pmole) and incubated for 30 min at room temperature. Assays were stopped by addition of 5 μl of 0.5 M (3%) orthophosphoric acid and then harvested onto P81 Unifilter plates with a wash buffer of 50 mM orthophosphoric acid.

MCF-7 cell line = assay: cells; format: cell-based; conditions: Homo sapiens; for IC (total growth inhibition): read-out: TGI
[1] = MCF7, 24 h, MCF-7, SRB assay, 24 hours
[2] = MCF7, MCF-7, SRB assay, 24 hours, mean of three experiments, read-out: IC50
[3] = 10 micromolar compound, read-out: mean activity remaining (as a percentage of the original activity), PKA
[4] = 10 micromolar compound, read-out: mean activity remaining (as a percentage of the original activity), PKCa
[5] = 0.5 h, 10 micromolar compound, read-out: mean activity remaining (as a percentage of the original activity), CK 1
[6] = 10 micromolar compound, read-out: mean activity remaining (as a percentage of the original activity), MARK 3

| Structure (SMILES) | IC (total growth inhibition) (MCF-7 cell line; [1]) | IC50 (MCF-7 cell line; [2]) | remaining activity at 10 µM (PKA; [3]) | remaining activity at 10 µM (PKCα; [4]) | remaining activity at 10 µM (YES1) | remaining activity at 10 µM (CK1; [5]) | remaining activity at 10 µM (MARK3; [6]) | further results |
| --- | --- | --- | --- | --- | --- | --- | --- | --- |
| CC(C)c1cnn2c(NCc3ccccc3F)cc(NCCCCCN)nc12 [ICEC-0232] | – | – | – | – | – | – | – | mean activity remaining (as a percentage of the original activity), PKA (PKA; 10 micromolar compound): 96%; mean activity remaining (as a percentage of the original activity), PKCa (PKCα; 10 micromolar compound): 80%; mean activity remaining (as a percentage of the original activity), YES1 (YES1): 106%; mean activity remaining (as a percentage of the original activity), CK 1 (CK1; 10 micromolar compound): 9%; mean activity remaining (as a percentage of the original activity), MARK 3 (MARK3; 10 micromolar compound): 96% |
| CC(C)c1cnn2c(NCc3ccccc3)cc(NCCCCCCCN)nc12 [BS-181] | – | – | – | – | – | – | – | remaining activity at 10 µM (PKA; PKA, 10 μM, read-out: Mean Remaining Enzyme Activity (%)): 110%; remaining activity at 10 µM (PKCα; PKCα, 10 μM, read-out: Mean Remaining Enzyme Activity (%)): 98%; remaining activity at 10 µM (CK1; CK1, 10 μM, read-out: Mean Remaining Enzyme Activity (%)): 29%; remaining activity at 10 µM (MARK3; MARK3, 10 μM, read-out: Mean Remaining Enzyme Activity (%)): 104% |
| CC[C@H](CO)Nc1cc(NCc2ccccc2)n2ncc(C(C)C)c2n1 [ICEC0067] | 13 µM | > 100 µM | 93% | 93% | 87% | 16% | 89% | – |
| C=C[C@H](CO)Nc1cc(NCc2ccccc2)n2ncc(C(C)C)c2n1 [ICEC0065] | 12 µM | > 100 µM | 107% | 101% | 90% | 19% | 93% | LC50 (concentration causing 50% net cell kill) (MCF-7 cell line; [1]): 8.5 µM |
| CC(C)c1cnn2c(NCc3ccccc3)cc(N[C@@H](CO)[C@H](O)CO)nc12 [ICEC0318, (3S)-3-(7-(Benzylamino)-3-isopropylpyrazolo[1,5-a]pyrimidin-5-ylamino)butane-1,2,4-triol] | < 2 µM | – | 93% | 96% | 89% | – | 82% | IC50 (MCF-7 cell line; MCF7, 24 h): < 2 µM; remaining activity at 10 µM (CK1; 0.5 h, read-out: mean activity remaining (as a percentage of the original activity), CK 1): 19% |
